Measurements: BigSolDB 2.1

## Nc1nccnc1Cl
In DMF, 278.15 K
  solubility (mole fraction): 0.00918
In DMF, 283.15 K
  solubility (mole fraction): 0.0122
In DMF, 288.15 K
  solubility (mole fraction): 0.0155
In DMF, 293.15 K
  solubility (mole fraction): 0.02
In DMF, 298.15 K
  solubility (mole fraction): 0.0247
In DMF, 303.15 K
  solubility (mole fraction): 0.0295
In DMF, 308.15 K
  solubility (mole fraction): 0.0346
In DMF, 313.15 K
  solubility (mole fraction): 0.04
In DMF, 318.15 K
  solubility (mole fraction): 0.0456
In DMF, 323.15 K
  solubility (mole fraction): 0.0515
In ethylene glycol, 278.15 K
  solubility (mole fraction): 0.000725
In ethylene glycol, 283.15 K
  solubility (mole fraction): 0.000935
In ethylene glycol, 288.15 K
  solubility (mole fraction): 0.00117
In ethylene glycol, 293.15 K
  solubility (mole fraction): 0.00147
In ethylene glycol, 298.15 K
  solubility (mole fraction): 0.0018
In ethylene glycol, 303.15 K
  solubility (mole fraction): 0.00217
In ethylene glycol, 308.15 K
  solubility (mole fraction): 0.00257
In ethylene glycol, 313.15 K
  solubility (mole fraction): 0.00301
In ethylene glycol, 318.15 K
  solubility (mole fraction): 0.00348
In ethylene glycol, 323.15 K
  solubility (mole fraction): 0.00394
In isopropanol, 278.15 K
  solubility (mole fraction): 0.002
In isopropanol, 283.15 K
  solubility (mole fraction): 0.00254
In isopropanol, 288.15 K
  solubility (mole fraction): 0.00319
In isopropanol, 293.15 K
  solubility (mole fraction): 0.004
In isopropanol, 298.15 K
  solubility (mole fraction): 0.00488
In isopropanol, 303.15 K
  solubility (mole fraction): 0.00591
In isopropanol, 308.15 K
  solubility (mole fraction): 0.00697
In isopropanol, 313.15 K
  solubility (mole fraction): 0.008
In isopropanol, 318.15 K
  solubility (mole fraction): 0.00929
In isopropanol, 323.15 K
  solubility (mole fraction): 0.0109
In methanol, 278.15 K
  solubility (mole fraction): 0.00283
In methanol, 283.15 K
  solubility (mole fraction): 0.00372
In methanol, 288.15 K
  solubility (mole fraction): 0.00479
In methanol, 293.15 K
  solubility (mole fraction): 0.00598
In methanol, 298.15 K
  solubility (mole fraction): 0.00723
In methanol, 303.15 K
  solubility (mole fraction): 0.00847
In methanol, 308.15 K
  solubility (mole fraction): 0.01
In methanol, 313.15 K
  solubility (mole fraction): 0.0116
In methanol, 318.15 K
  solubility (mole fraction): 0.0133
In methanol, 323.15 K
  solubility (mole fraction): 0.0153
In water, 278.15 K
  solubility (mole fraction): 2.78e-05
In water, 283.15 K
  solubility (mole fraction): 3.74e-05
In water, 288.15 K
  solubility (mole fraction): 4.95e-05
In water, 293.15 K
  solubility (mole fraction): 6.21e-05
In water, 298.15 K
  solubility (mole fraction): 7.6e-05
In water, 303.15 K
  solubility (mole fraction): 9.05e-05
In water, 308.15 K
  solubility (mole fraction): 0.000106
In water, 313.15 K
  solubility (mole fraction): 0.000123
In water, 318.15 K
  solubility (mole fraction): 0.00014
In water, 323.15 K
  solubility (mole fraction): 0.000158

## Nc1ncc(Br)nc1Br
In ethanol, 278.15 K
  solubility (mole fraction): 0.000754
In ethanol, 283.15 K
  solubility (mole fraction): 0.000938
In ethanol, 288.15 K
  solubility (mole fraction): 0.00115
In ethanol, 293.15 K
  solubility (mole fraction): 0.00136
In ethanol, 298.15 K
  solubility (mole fraction): 0.00158
In ethanol, 303.15 K
  solubility (mole fraction): 0.0018
In ethanol, 308.15 K
  solubility (mole fraction): 0.00202
In ethanol, 313.15 K
  solubility (mole fraction): 0.00231
In ethanol, 318.15 K
  solubility (mole fraction): 0.00261
In ethanol, 323.15 K
  solubility (mole fraction): 0.00291
In ethylene glycol, 278.15 K
  solubility (mole fraction): 0.000127
In ethylene glycol, 283.15 K
  solubility (mole fraction): 0.000155
In ethylene glycol, 288.15 K
  solubility (mole fraction): 0.000185
In ethylene glycol, 293.15 K
  solubility (mole fraction): 0.000219
In ethylene glycol, 298.15 K
  solubility (mole fraction): 0.000256
In ethylene glycol, 303.15 K
  solubility (mole fraction): 0.000291
In ethylene glycol, 308.15 K
  solubility (mole fraction): 0.00033
In ethylene glycol, 313.15 K
  solubility (mole fraction): 0.000373
In ethylene glycol, 318.15 K
  solubility (mole fraction): 0.00042
In ethylene glycol, 323.15 K
  solubility (mole fraction): 0.000469
In isopropanol, 278.15 K
  solubility (mole fraction): 0.000516
In isopropanol, 283.15 K
  solubility (mole fraction): 0.000615
In isopropanol, 288.15 K
  solubility (mole fraction): 0.00072
In isopropanol, 293.15 K
  solubility (mole fraction): 0.00085
In isopropanol, 298.15 K
  solubility (mole fraction): 0.000986
In isopropanol, 303.15 K
  solubility (mole fraction): 0.00115
In isopropanol, 308.15 K
  solubility (mole fraction): 0.00131
In isopropanol, 313.15 K
  solubility (mole fraction): 0.00149
In isopropanol, 318.15 K
  solubility (mole fraction): 0.00169
In isopropanol, 323.15 K
  solubility (mole fraction): 0.00192
In propylene glycol, 278.15 K
  solubility (mole fraction): 0.000258
In propylene glycol, 283.15 K
  solubility (mole fraction): 0.000304
In propylene glycol, 288.15 K
  solubility (mole fraction): 0.00037
In propylene glycol, 293.15 K
  solubility (mole fraction): 0.000432
In propylene glycol, 298.15 K
  solubility (mole fraction): 0.000506
In propylene glycol, 303.15 K
  solubility (mole fraction): 0.000577
In propylene glycol, 308.15 K
  solubility (mole fraction): 0.000651
In propylene glycol, 313.15 K
  solubility (mole fraction): 0.000734
In propylene glycol, 318.15 K
  solubility (mole fraction): 0.000827
In propylene glycol, 323.15 K
  solubility (mole fraction): 0.000928
In water, 278.15 K
  solubility (mole fraction): 2.55e-06
In water, 283.15 K
  solubility (mole fraction): 3.14e-06
In water, 288.15 K
  solubility (mole fraction): 3.73e-06
In water, 293.15 K
  solubility (mole fraction): 4.44e-06
In water, 298.15 K
  solubility (mole fraction): 5.18e-06
In water, 303.15 K
  solubility (mole fraction): 5.89e-06
In water, 308.15 K
  solubility (mole fraction): 6.76e-06
In water, 313.15 K
  solubility (mole fraction): 7.68e-06
In water, 318.15 K
  solubility (mole fraction): 8.61e-06
In water, 323.15 K
  solubility (mole fraction): 9.63e-06
